How the values were obtained:
[1] = biological target: T1, ERβ ligand-binding domain (Homo sapiens, UniProt Q92731); test: TR-FRET ligand binding assay, isolated LBD of ERβ
T1 construct: purchased Invitrogen
Protocol: A modified LanthaScreen TR-FRET alpha/beta assay was performed, according to the manufacturer’s protocol (Invitrogen, Carlsbad, […]), to determine the binding affinity to the isolated LBD. […] Measurements were carried out on a multimode plate reader, Tecan Spark (Tecan, Männedorf, Switzerland). Calculations and visualization were performed with GraphPad Prism 8.0 (GraphPad Software, San Diego, CA, USA).

plasmid pSport1 = test: DNA interference assay (gel electrophoresis); format: binding; conditions: 20 μM, 4 h, 37 °C
Protocol: Therefore, the general possibility of DNA interaction was examined by incubating the complex with the empty plasmid pSport1 at a concentration of 20 μM for 4 h at 37 °C. The gel electrophoretic separation[60] […] The ladder structure differs from both the untreated sample (Figure 9A) and the solvent control (Figure 9B) and is similar to that of Cisplatin (Figure 9C).
Two μL (conc. 0.5 μg/μL) of an empty pSport1 (4109 base pairs) plasmid was mixed with 2 μL of each test compound (200 μM in DMF) and diluted with 16 μL of nuclease-free water to reach a final concentration of 20 μM for GW7604-Pent-PtCl3 and […] for Cisplatin. Afterward, this mixture was incubated for 4 h at 37 °C under gentle shaking. Samples were loaded with gel loading buffer on agarose gel [0.5% (w/v) in 1 × TRIS-acetate-EDTA (TAE) buffer + 0.004% Midori Green Advance]. The following running parameters were used: 95 min at 3 V/cm in 1 × TAE buffer. Images were visualized under UV light (254 nm).

T1 sequence (Q92731 264-498 limits assumed): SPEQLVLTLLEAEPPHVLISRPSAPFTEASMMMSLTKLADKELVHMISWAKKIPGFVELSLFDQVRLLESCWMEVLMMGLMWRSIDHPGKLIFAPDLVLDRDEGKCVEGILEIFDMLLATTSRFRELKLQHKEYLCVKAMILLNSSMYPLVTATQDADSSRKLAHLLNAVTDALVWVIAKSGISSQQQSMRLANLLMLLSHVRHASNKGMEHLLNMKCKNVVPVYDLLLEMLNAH

Question: Which results are given for `CCC(=C(c1ccc(O)cc1)c1ccc(C=CC(=O)OCCC[CH]2[CH2][Pt-]2([Cl])([Cl])[Cl])cc1)c1ccccc1.[K+]` (mixture of isomers) [GW7604-Pent-PtCl3, Potassium trichlorido[η^2-(pent-4-en-1-yl (E)-3-(4-((E/Z)-1-(4-hydroxyphenyl)-2-phenylbut-1-en-1-yl)phenyl)acrylate)]platinate(II)]?
Answer: RBA (ERβ) ([1]; RBA(E2) = 100%): 6.02%; IC50 ([1]; read-out: IC50 (ERβ), displacement from the LBS): 3.99 nM; interaction with plasmid DNA (plasmid pSport1): binds to DNA

Reference: PMC10983001, “Development of Cytotoxic GW7604-Zeise’s Salt Conjugates as Multitarget Compounds with Selectivity for Estrogen Receptor- Positive Tumor Cells” (Journal of Medicinal Chemistry, 2024)
